Data: PubChem BioAssay AID256 (DTP/NCI, 2004)
“And” between values parts separate entries of the source, which are not always exact repeats. Equal values may be shown once. Inconclusive results and toxic doses are left out. The calls were made as follows: active = survival T/C of 150% or more; inactive = T/C below 125% in these data.

System: CD2F1 mice, L1210 leukemia ip, survival T/C
Experiment: NCI In Vivo Anticancer Drug Screen. Data for tumor model L1210 Leukemia (intraperitoneal) in CD2F1 (CDF1) mice
Details: endpoint: mean survival time, higher = longer survival
Outline: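 In this screen, transplantable tumors were grown in mice given either the compound or its vehicle. Results were expressed as the treated measurement relative to the control measurement.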

[1] = dose: 100.0 mg/kg/injection, schedule: Q01DX009 (ip), vehicle: saline with Tween-80
[2] = dose: 200.0 mg/kg/injection, schedule: Q01DX009 (ip), vehicle: saline with Tween-80
[3] = dose: 400.0 mg/kg/injection, schedule: Q01DX009 (ip), vehicle: saline with Tween-80
[4] = dose: 100.0 mg/kg/injection, schedule: Q04DX002 (ip), vehicle: saline with Tween-80
[5] = dose: 100.0 mg/kg/injection, schedule: Q04DX003 (ip), vehicle: saline with Tween-80
[6] = dose: 200.0 mg/kg/injection, schedule: Q04DX003 (ip), vehicle: saline with Tween-80
[7] = dose: 400.0 mg/kg/injection, schedule: Q04DX003 (ip), vehicle: saline with Tween-80
[8] = dose: 50.0 mg/kg/injection, schedule: Q01DX009 (ip), vehicle: saline with Tween-80
[9] = dose: 25.0 mg/kg/injection, schedule: Q01DX009 (ip), vehicle: saline with Tween-80
[10] = dose: 25.0 mg/kg/injection, schedule: Q04DX002 (ip), vehicle: saline with Tween-80
[11] = dose: 50.0 mg/kg/injection, schedule: Q04DX002 (ip), vehicle: saline with Tween-80

Measured: T/C

Cc1ccc(S(=O)(=O)N/N=C2\CC3CCC2C3)cc1 (stereo not drawn)
inactive: [1] 90 % of control and 105 % of control | [2] 96 % of control and 100 % of control | [3] 93 % of control and 96 % of control

CC12CCC3C4CCC(=O)C(O)=C4CCC3C1CCC2OC(=O)CCC1CCCC1 (stereo not drawn)
inactive: dose: 100.0 mg/kg/injection, schedule: Q04DX003 (sc), vehicle: steriod suspending solution 101 % of control | dose: 200.0 mg/kg/injection, schedule: Q04DX003 (sc), vehicle: steriod suspending solution 104 % of control | dose: 400.0 mg/kg/injection, schedule: Q04DX003 (sc), vehicle: steriod suspending solution 104 % of control

O=C(Nc1cccc(I)c1)OCCCl
inactive: [4] 89 % of control | dose: 200.0 mg/kg/injection, schedule: Q04DX002 (ip), vehicle: saline with Tween-80 92 % of control | dose: 400.0 mg/kg/injection, schedule: Q04DX002 (ip), vehicle: saline with Tween-80 92 % of control

Cc1c2c(cc3c1CCC1(C)C3CCC1C(C)CCC(C)C(C)C)CCCC2 (stereo not drawn)
inactive: [5] 94 % of control | [6] 94 % of control | [7] 89 % of control

O=C(c1ccccc1)C1(Br)CCC1
inactive: [5] 95 % of control | [6] 97 % of control | [7] 100 % of control

CC12CS(=O)(=O)CC1O2 (stereo not drawn)
inactive: [5] 101 % of control | [6] 96 % of control | [7] 101 % of control

O=C(CNC(=O)c1ccccc1)N/N=C/c1ccncc1
inactive: [1] 90 % of control | [3] 92 % of control

OCc1ccc[n+](CCc2c[nH]c3ccccc23)c1
inactive: [8] 104 % of control | [1] 95 % of control

CC1Cc2c([nH]c(=O)n(-c3ccccc3)c2=O)O1 (stereo not drawn)
inactive: dose: 100.0 mg/kg/injection, schedule: Q01DX001 (ip), vehicle: saline 103 % of control | dose: 200.0 mg/kg/injection, schedule: Q01DX001 (ip), vehicle: saline 92 % of control | dose: 400.0 mg/kg/injection, schedule: Q01DX001 (ip), vehicle: saline 92 % of control

CCCSc1ccc2nc(NC(=O)OC)[nH]c2c1
inactive: [8] 93 % of control | [1] 107 % of control | [2] 118 % of control

COc1cc(OC)c(NC(=O)Oc2ccc(SC)cc2)cc1Cl
inactive: dose: 12.5 mg/kg/injection, schedule: Q01DX009 (ip), vehicle: saline with Tween-80 94 % of control | [9] 97 % of control | [8] 97 % of control | [1] 88 % of control | [2] 92 % of control

CC(=O)Nc1cc(Cl)c2ncn(C3OC(CO)C(O)C3O)c2n1 (stereo not drawn)
inactive: dose: 12.5 mg/kg/injection, schedule: Q01DX005 (ip), vehicle: water 102 % of control | dose: 25.0 mg/kg/injection, schedule: Q01DX005 (ip), vehicle: water 95 % of control | dose: 50.0 mg/kg/injection, schedule: Q01DX005 (ip), vehicle: water 102 % of control | dose: 100.0 mg/kg/injection, schedule: Q01DX005 (ip), vehicle: water 91 % of control | dose: 200.0 mg/kg/injection, schedule: Q01DX005 (ip), vehicle: water 101 % of control

NC(CCCCNCC(CNCCCCC(N)C(=O)O)C(=O)O)C(=O)O (stereo not drawn)
inactive: [10] 105 % of control | [11] 98 % of control | [4] 94 % of control

COC(=O)C(Br)C1CCCCC1 (stereo not drawn)
inactive: [8] 95 % of control | [1] 102 % of control | [5] 100 % of control | [2] 93 % of control | [6] 102 % of control

C=C(Br)CNC(=O)C(=O)OCC
inactive: [5] 105 % of control

COc1cc2c(cc1OC)C(=O)C(C)(c1ccccc1)NC2 (stereo not drawn)
inactive: [5] 96 % of control | [6] 96 % of control | [7] 94 % of control

O=S(=O)(c1ccccc1)c1ccc(Br)cc1
inactive: [1] 94 % of control | [2] 96 % of control | [3] 98 % of control

CCN1/C(=C\c2ccc3cc(OC)ccc3[n+]2CC)[Se]c2ccc(OC)cc21
inactive: dose: 9.5 mg/kg/injection, schedule: Q01DX001 (ip), vehicle: other 86 % of control

Oc1ccc2c3c1OC1C(O)C=CC4C(C2)NCCC341 (stereo not drawn)
inactive: dose: 25.0 mg/kg/injection, schedule: Q04DX003 (ip), vehicle: DMSO 95 % of control | dose: 50.0 mg/kg/injection, schedule: Q04DX003 (ip), vehicle: DMSO 95 % of control | dose: 100.0 mg/kg/injection, schedule: Q04DX003 (ip), vehicle: DMSO 106 % of control

CCOC(=O)C1=C(C)NC(C)=C(C(=O)OCC)C1c1ccc(OC)cc1
inactive: [1] 104 % of control | [5] 97 % of control | [2] 101 % of control | [6] 94 % of control | [3] 97 % of control | [7] 92 % of control

c1ccc(-c2nc3c(c(-c4ccccc4)n2)CCO3)cc1
inactive: [1] 95 % of control | [5] 98 % of control | [2] 93 % of control | [6] 100 % of control | [3] 95 % of control | [7] 90 % of control

Cc1ccc(S(=O)(=O)N/N=C2/CC3CCC(C)(C2)C3)cc1 (stereo not drawn)
inactive: [7] 94 % of control

NC(=O)C1C=CCC1 (stereo not drawn)
inactive: [9] 104 % of control | [10] 95 % of control | [8] 101 % of control | [11] 100 % of control | [1] 101 % of control | [4] 91 % of control

Cc1ccc(S(=O)(=O)NC(=S)c2ccccc2)cc1
inactive: dose: 100.0 mg/kg/injection, schedule: Q01DX001 (ip), vehicle: saline with Tween-80 97 % of control | dose: 200.0 mg/kg/injection, schedule: Q01DX001 (ip), vehicle: saline with Tween-80 105 % of control
